This note sets out measurements from US20090075397A1, “Method for characterizing sugar-binding interactions of biomolecules” (Academia Sinica, priority 2007, published 2009).

In test [1] the test system is recombinant hemagglutinin (HA) of H1N1 (A/Beijing/262/95). Format: binding, influenza virus H1N1 (A/Beijing/262/95).
The test system of test [2] is H1N1 virus (A/Beijing/262/95). Format: binding, influenza virus H1N1 (A/Beijing/262/95). The conditions noted are these: virus particles on acceptor beads, FIG. 5A.
Test [3] has as its system H3N2 virus (A/Panama/2007/99). Type of test: binding, influenza virus H3N2 (A/Panama/2007/99). The conditions noted are these: virus particles on acceptor beads, FIG. 5B.
The next test deals with T1, lectin UEA-1 (Ulex europaeus, UniProt P22972).
T1 construct: purchased EY Labs, Inc
T1 sequence (P22972 1-243): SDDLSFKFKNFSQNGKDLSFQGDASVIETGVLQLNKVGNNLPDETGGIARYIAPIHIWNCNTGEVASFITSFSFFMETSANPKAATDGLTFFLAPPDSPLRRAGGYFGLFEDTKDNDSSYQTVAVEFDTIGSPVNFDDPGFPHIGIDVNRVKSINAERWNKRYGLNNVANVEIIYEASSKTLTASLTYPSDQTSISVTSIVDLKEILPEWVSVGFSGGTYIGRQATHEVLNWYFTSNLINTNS
The experiment in a line: ALPHAScreen sugar/protein binding assay, sugar on donor beads, lectin on acceptor beads. The conditions noted are these: sugar linked to streptavidin donor beads, UEA-1 on acceptor beads. A general note: Alpha assays give light when donor and acceptor beads are brought close together.

Test [4] is described as follows: ALPHAScreen profiling of lectin binding specificities with biotinylated PAA-sugars. The note with it: for Binding specificities: Table 2 (SI), examined lectins.
Another test relates to anti-Lex antibody. In words: ALPHAScreen sugar/protein binding assay, sugar on donor beads, antibody on acceptor beads. The note with it: sugar linked to streptavidin donor beads.

Regarding (NeuAcα2-8)5-6 [Glycan No. 52], the “recognition by HA of H1N1 (A/Beijing/262/95)” value (“recognition by HA of H1N1” for short) in test [1] is reported as “do not recognize”. In addition, the “recognition by H1N1 virus (A/Beijing/262/95)” value (“recognition by H1N1 virus” below) in test [2] is reported as “do not recognize”. Besides, the “recognition by H3N2 virus (A/Panama/2007/99)” value in test [3] was “accepted”.

For α-L-Fuc [Glycan No. 6], the “binding signal with lectin UEA-1” value on lectin UEA-1 is “able to produce signals”.

Turning to SBA: lectin of Glycine max, in test [4], the Binding specificities entry was “GalNAc/Gal”.

As to “Galβ1-4(Fucα1-3)GlcNAc (Le^x) [Glycan No. 33]”, in the test with anti-Lex antibody, the “binding signal with anti-Lex antibody” value is on record as “able to produce signals”.

Take `CC(=O)N[C@H]1[C@H]([C@H](O)[C@H](O)CO)O[C@@](O[C@H]2[C@@H](O)[C@@H](CO)OC(O)[C@@H]2NC(C)=O)(C(=O)O)C[C@@H]1O` (stereo partly drawn) [Glycan No. 27, NeuAcα2-3GalNAc]: the “recognition by HA of H1N1” value in test [1] is listed as “do not recognize”. Moreover, the “recognition by H1N1 virus” value in test [2] was “do not recognize”.

As for `CC(=O)N[C@H]1C(O)O[C@H](CO[C@]2(C(=O)O)C[C@H](O)[C@@H](NC(=O)CO)[C@H]([C@H](O)[C@H](O)CO)O2)[C@H](O)[C@@H]1O` (stereo partly drawn) [Glycan No. 22, NeuGcα2-6GalNAc], the “recognition by HA of H1N1” value in test [1] is listed as “do not recognize”. The “recognition by H1N1 virus” value in test [2] is listed as “do not recognize”.

B1: PNA: lectin of Arachis hypogaea (protein, UniProt P02872 24-273, looked up)
Galactose-binding lectin: AETVSFNFNSFSEGNPAINFQGDVTVLSNGNIQLTNLNKVNSVGRVLYAMPVRIWSSATGNVASFLTSFSFEMKDIKDYDPADGIIFFIAPEDTQIPAGSIGGGTLGVSDTKGAGHFVGVEFDTYSNSEYNDPPTDHVGIDVNSVDSVKTVPWNSVSGAVVKVTVIYDSSTKTLSVAVTNDNGDITTIAQVVDLKAKLPERVKFGFSASGSLGGRQIHLIRSWSFTSTLITTTRRSIDNNEKKIMNMASA
In the case of B1, in test [4], the Binding specificities entry is “Galβ1-3GalNAc”. In addition, in test [4] (profiled with more than 50 biotinylated PAA-sugars, FIG. 2), the “lectin sugar binding specificity” value is “binds to the Galb1-3GalNAc structure specifically”.
